# Reference: patent publication US20220268782A1, “METHODS FOR PREDICTING AND TREATING CARDIAC DYSFUNCTION” (INSERM (INSTITUT NATIONAL DE LA SANTÉ EAT DE LA RECHERCHE …, priority 2019, published 2022)
# Test system: C2C12 myoblasts
# Assay: PA catabolism and Nrf2-antioxidant pathway in C2C12 cells (Pah, tyrosine, 2-SC)
# Format: cell-based
# Settings: data not shown
# Description: Cells were washed briefly with ice-cold 1×PBS, scraped in 400 μL T-PER lysis buffer (ThermoFisher) supplemented with 0.1 mM phenylmethylsulphonyl fluoride (PMSF) and protease/phosphatase inhibitor cocktail tablet (ThermoFisher). Pulverised tissue samples (20-30 mg) were lysed in the same buffer accelerated by sonication and passing through a 21 G needle. To pellet any debris, lysates were centrifuged at 10,000 g for 10 minutes at 4° C., with the supernatant transferred to fresh tubes. Protein concentrations were determined with Bradford assay (Biorad) and lysates were diluted to equal concentration with lysis buffer. […]
# C2C12 (ATCC® CRL-1772™) myoblasts maintained in DMEM supplemented with L-glutamine (2 mM), penicillin/streptomycin (1%) and 5% fetal bovine serum (FBS) were seeded either at a density of 5×10^4 cells (<50%) per well in 24-well plates or 10^4 cells in 4-well chamber slides. […] Cells were analysed for oxidative stress with MitoSOX™ (mitochondrial superoxide; 5 μM, ThermoFisher Scientific), CellROX™ (cytosolic superoxide; 5 μM, ThermoFisher Scientific), gene or protein expression, or various metabolites (see below).
# Levels of reduced glutathione (GSH; ThermoFisher), phenylalanine (BioVision) and tyrosine (BioVision) were determined from cells or plasma, with respective agents/kits following the manufacturer's recommendations. […]
smiles,measurement,setting,value
"CC(O)C(O)C1CNc2nc(N)[nH]c(=O)c2N1 (centres unmarked) [BH4, 2-amino-6-(1,2-dihydroxypropyl)-5,6,7,8-tetrahydro-3H-pteridin-4-one]",succination-sensitive Nrf2-antioxidant pathway,BH4-dependent succination,activation
same,"PA catabolism: cellular levels of Pah, tyrosine and 2-succinylcysteine (2-SC)",,increased
